Values of other authors, collected in US20250302767A1, “TREATMENT OF CANCER AND AUTOIMMUNE DISORDERS USING NANO POLYMERS OF HISTONE DEACETYLASE INHIBITORS” (University of Virginia Patent Foundation, priority 2021, published 2025).

Columns and labels:
PTCL = settings: patients with PTCL, single agent, cited from earlier work; for Outcomes: ORR: pivotal trial cited per drug (romidepsin: trial (6) Coiffier et al., 2014); for Outcomes: CR / Outcomes: DOR: pivotal trial cited per drug (romidepsin: trial (6))
ALCL = settings: patients with ALCL, pivotal trials (3, 4); cited from earlier work

Row | Compound | Outcomes: ORR (PTCL) | Outcomes: CR (PTCL) | Outcomes: DOR (PTCL) | Outcomes: CR (ALCL) | Outcomes: DOR (ALCL) | Outcomes: ORR (ALCL)
1 | O=C(/C=C/c1cccc(S(=O)(=O)Nc2ccccc2)c1)NO [Belinostat] | 26% | 11% | 13.6 months |  |  | 
2 | Nc1cc(F)ccc1NC(=O)c1ccc(CNC(=O)/C=C/c2cccnc2)cc1 [Chidamide, N-(2-Amino-4-fluorophenyl)-4-[[[(E)-3-pyridin-3-ylprop-2-enoyl]amino]methyl]benzamide] | 28% | 14% | 9.9 months |  |  | 
3 | C#CCC(Cc1cnc2nc(N)nc(N)c2n1)c1ccc(C(=O)N[C@@H](CCC(=O)O)C(=O)O)cc1 (stereo partly drawn) [Pralatrexate] | 29% | 11% | 10.1 months |  |  | 
4 | Brentuximab vedotin |  |  |  | 57% | 13.2 months | 86%
